Reference: patent US20230104487A1, “11-(4-CHLOROPHENYL)-4-(2,3-DIHYDRO-1H-INDOLE-1-CARBONYL)-3,11-DIMETHYL-5,10,DIOXATRICYCLO[7.4.0.0,2,6,]TRIDECA-1,3,6,8-TETRAEN-13-ONE AND DERIVATIVES AS DESTABILIZER OF CRY1 FOR THE TREATMENT OF CIRCADIAN RHYTHM ASSOCIATED DISEASES AND DISORDERS” (KOC UNIVERSITESI, priority 2019, published 2023)

Tested on: Cry1−/−/Cry2−/− mouse embryonic fibroblasts
Test: Circadian reporter assay in CRY double knockout MEFs (mPer2-dLuc)
Assay type: cell-based
Settings: DKO-MEF transfected with mPer2-luc
Procedure: Luminescence values were recorded at 32° C. for each 30 minutes with 15 seconds integration time via Synergy H1 luminometer for a week. For LumiCycle, 400×10^3 U2-OS Bmal1-dLuc or NIH3T3 mPer2-dLuc cells were seeded to 35 mm plates and then procedure given above was followed with a change in the last step. Plates were sealed with vacuum grease and placed to LumiCycle. Each plate was recorded continuously every 10 minutes for 70 seconds at 37° C. via photomultiplier tubes. Period and amplitude data were obtained from LumiCycle Analysis software. To detect the effect of FORMULA I in the absence of CRYs, Cry1^−/−/Cry2^−/− mouse embryonic fibroblasts (CRYDKO MEFs) transiently transfected with pGL3-Per2-Luc (luciferase reporter) were used. 3×10^5 CRYDKO cells were seeded in 35 mm clear plates. Next day, cells were transfected with 4000 ng pGL3-Per2-Luc via Fugene6 transfection reagent according to the manufacturer's instruction. In short, 3:1 ratio of Fugene6 in μl against transfected DNA amount in μg was kept in transfections. 72 h after transfection cells were synchronized with DXM for two hours. Then, medium was changed with lumicycle medium having DMSO or molecule, sealed with vacuum grease, and placed to LumiCycle.

## Cc1c(C(=O)N2CCc3ccccc32)oc2ccc3c(c12)C(=O)CC(C)(c1ccc(Cl)cc1)O3 (stereo not shown) [FORMULA I, 11-(4-chlorophenyl)-4-(2,3-dihydro-1H-indole-1-carbonyl)-3,11-dimethyl-5,10,dioxatricyclo[7.4.0.0,2,6,]trideca-1,3,6,8-tetraen-13-one]
  effect on rhythm in absence of CRYs: had no effect
